A short description of the data set: xn = mol fraction of the nth substance listed. The following applies: 101 kPa, Liquid, Vibrating tube method, x2 = 0.5.

± gives the expanded uncertainty stated by the source.

As a reminder, the mass density is mass per unit of volume. On to `O=C(O)CC(=O)O` [propanedioic acid] + C[N+](C)(C)CCO.[Cl-], for which the mass density is recorded as 1189.9 ± 0.6 kg/m3 (303.15 K); 1187.3 ± 0.6 kg/m3 (308.15 K); 1184.7 ± 0.6 kg/m3 (313.15 K); 1182.1 ± 0.6 kg/m3 (318.15 K); 1179.7 ± 0.6 kg/m3 (323.15 K).

Values taken from the NIST ThermoML archive (doi:10.1016/j.jct.2013.08.029).
